Key:
TNFR = format: cell-based, mice; settings: pre-treatment with 3.3 or 33 nM
Experimental: (§1) Activity was monitored by ^3H-thymidine incorporation as a read-out for proliferation. […] Cell type(s) in the splenocyte population responsive to therapeutic concentrations of cardiac glycoside were determined by identifying the population of cells that responded to a dose-dependent decrease in activity in the presence of stimulant, defined as ligand(s) binding to cognate receptor(s). Activity was analyzed by: ^3H-thymidine or BrdU incorporation to monitor proliferation or by ELISA to monitor cytokine production. Splenic T lymphocytes were isolated by negative selection (MACS, Miltinyi Biotec) and are stimulated with PMA, ConA or through the TCR with anti-CD3/anti-CD28 Dynabeads (Invitrogen) and collagen II (all non-TNFR receptors/pathways). […] Peritoneal and bone marrow-derived macrophages were isolated from CIA mice in the presence of M-CSF growth factor and were stimulated with TNF and CD40 ligand (CD40L). […] Splenic B lymphocytes were isolated by negative selection (MACS, Miltinyi Biotec) and were stimulated with BAFF (BLyS), CD40L or through the BCR with anti-IgM u-chain specific antibodies.

CD40 = target: T1, CD40 (Mus musculus, UniProt P27512); format: cell-based, mice; settings: pre-treatment with 3.3 or 33 nM
T1 construct: Peritoneal and bone marrow-derived macrophages were isolated from CIA mice; endogenous in cells; host or cells: peritoneal and bone marrow-derived macrophages from CIA mice
T1 sequence (P27512 20-289): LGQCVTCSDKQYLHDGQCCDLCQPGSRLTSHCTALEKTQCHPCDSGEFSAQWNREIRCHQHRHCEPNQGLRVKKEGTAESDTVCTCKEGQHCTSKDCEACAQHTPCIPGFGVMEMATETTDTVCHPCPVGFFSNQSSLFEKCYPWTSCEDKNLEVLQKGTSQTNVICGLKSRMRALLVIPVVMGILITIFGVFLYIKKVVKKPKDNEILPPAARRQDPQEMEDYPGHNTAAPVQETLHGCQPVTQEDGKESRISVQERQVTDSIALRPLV
Experimental: as §1

T cell receptor = format: cell-based, mice; settings: non-TNFR family member; therapeutic concentrations
Experimental: as §1

[1] = test system: naïve CD4+ T cells, Th17 differentiation; experiment: Th17 T cell differentiation in co-culture with pre-treated CIA B cells; format: cell-based, mice; settings: B cells treated 33 nM for 30 minutes, washed, co-culture 72 hr in Th17 differentiation media
Experimental: FIG. 24. […] At endpoint, IL-17 cytokine levels were quantified by ELISA (R&D Systems). (B) IL-10 cytokine production was also assessed in each sample by ELISA (eBiosciences). Data represent the average of triplicates and error bars represent the SEM. Statistical significance was determined by the students t-test.
It is known that B cells can regulate T cell differentiation and in many states of autoimmune disease, an imbalance of Th1, Th2, and Th17 T cell populations exist. […] We performed studies to determine the regulatory effector function of B cells pre-treated with cardiac glycoside on T cell differentiation. B cells blocked naïve CD4^+ T cell differentiation into Th17 cells when cardiac glycoside was administered to B cells 30 minutes prior to co-culture with T cells (FIG. 24 A). Additionally, the pre-treatment of B cells with cardiac glycoside inhibited Th17 differentiation in a STAT3-dependent manner (FIG. 25A). […] Cardiac glycosides can be administered to patients to induce IL-10 expressing B cells and to modulate T cell differentiation and increase numbers of Tregs which reduce autoimmune disease progression.

SLE-like disease = experiment: MRL-Ipr mouse model of systemic lupus erythematosus; format: in vivo, MRL-Ipr female mice
Experimental: FIG. 16. […] SLE-like disease progression in MRL-Ipr female mice (Jackson Laboratories) was evaluated. Briefly, 10 mice per treatment arm were followed for the development of SLE-like disease over the course of 16 weeks. […] Animals were scored on a weekly basis for proteinuria and survived until 23 weeks of age. Data represent the average proteinuria concentration in urine collected from each mouse using Uristix (Bayer Corp.). Error bars represent SEM. The Mann-Whitney test was used to determine significance between vehicle and digitoxin groups. Asterisks represent significant P values <0.01.
FIG. 17. […] At endpoint, 23 week old female MRL-Ipr mice were sacrificed and kidneys were fixed, embedded in paraffin, sectioned longitudinally and stained for glomeruli with periodic acid-Schiff stain (Histotec). (A) Depiction of a section taken from a representative vehicle treated kidney. (B) Depiction of a section taken from a representative digitoxin treated kidney.
FIG. 18. […] Endpoint serum titers were taken for each mouse and the concentration of anti-double-stranded DNA (ANA) antibodies were assessed (A). […] ANA antibodies were measured using ELISA (Alpha Diagnostic International). Error bars represent the SEM. The student t-test was used to determine significance. Asterisks represent significant P values.
Cardiac glycosides are used for the treatment of systemic lupus erythematosus and other forms of multi-system inflammatory diseases. […] Studies are conducted to determine the ability of cardiac glycosides to treat SLE. The effectiveness of cardiac glycosides at treating SLE disease progression in MRL-Ipr female mice (Jackson Laboratories) was evaluated. Briefly, 10 mice per experimental arm were followed for the development of SLE disease. […] Animals were scored on a weekly basis for proteinuria and survived until 23 weeks of age (FIG. 16). Weekly proteinuria monitoring was performed using Uristix (Bayer Corp.). […] Endpoint serum titres of double-stranded DNA (ANA) antibodies for each mouse were assessed (FIG. 18 A). […] ANA antibodies were measured using ELISA (Alpha Diagnostic International). […]

For `C[C@H]1O[C@@H](O[C@H]2[C@@H](O)C[C@H](O[C@H]3[C@@H](O)C[C@H](O[C@H]4CC[C@@]5(C)[C@H](CC[C@@H]6[C@@H]5CC[C@]5(C)[C@@H](C7=CC(=O)OC7)CC[C@]65O)C4)O[C@@H]3C)O[C@@H]2C)C[C@H](O)[C@@H]1O` [Digitoxin, digitoxin], the “TNF-mediated activation of macrophage through TNFR” value (TNFR) was “inhibits”, the “CD40L-mediated activation of macrophage through CD40” value (CD40) was “inhibits” and the “proliferation of T cells in response to stimulation through the T cell receptor” value (T cell receptor) was “did not alter proliferation”. For the same molecule, the “Th17 cell differentiation (IL-17 by ELISA)” value [1] was “down-regulates Th17 cell differentiation”, the “disease severity (average proteinuria) in experimental lupus” value (SLE-like disease; 0.6 mg/kg every-4-days sublingual from week 8, 10 mice per arm, Mann-Whitney P<0.01) was “decrease disease severity” and the “kidney pathology (periodic acid-Schiff stained glomeruli)” value (SLE-like disease; 23 week old mice at endpoint, 0.6 mg/kg every-4-days sublingual) was “decrease kidney pathology”. The “endpoint serum anti-double-stranded DNA (ANA) antibodies” value (SLE-like disease; endpoint serum, ELISA) was “inhibit autoantibody production”.
